Assay results from patent publication US20150299250A1, “MACROCYCLIC COMPOUNDS AND USES THEREOF” (ADELAIDE RESEARCH & INNOVATION PTY LTD, priority 2012, published 2015).

Key:
[1] = system: panel of sarcoma cell lines (WE-68, VH-64, STA-ET-1, TC-252); experiment: Cell viability assay, panel of four sarcoma cell lines (average); format: cell-based; settings: for IC50: average of four sarcoma cell lines, read-out: Average IC50 for cancer cell lines
Experimental: (§1) Cell viability assays were performed as previously described. Briefly, cells were seeded in 96 well microtiterplates at a density of 3×10^4 cells per well in the presence of the indicated chemical. Cells were harvested 48 hours post-treatment, centrifuged at 1,300×g, washed in phosphate-buffered saline (PBS) and stained with 7AAD solution (2 μg/mL) (7-amino-actinomycin-D, Invitrogen, Carlsbad, Calif.) for 10 mins at room temperature. Viable cells were determined with the use of a FACS Calibur flow cytometer (Becton Dickinson Immunocytometry Systems), and analyzed with the use of FLOWJO (Tree Star, Inc) and GraphPad Prism (GraphPad Software Inc).
(§2) WE-68 and VH-64 Ewing's sarcoma cells were kindly supplied by F. van Valen (Department of Orthopaedic Surgery, Westfalische-Wilhelms-University, Germany).TC-252 and STA-ET-1 Ewing's sarcoma cells were kindly provided by G. Hamilton (Department of Surgery, University of Vienna, Austria) or P. Ambros (Children's Cancer Research Institute, St Anna Children's Hospital, Vienna, Austria). Primary human embryonic fibroblasts or primary human osteoblasts were collected from the Women's and Children's Hospital (North Adelaide, South Australia, Australia) or Royal Adelaide Hospital with patient consent. Mouse Embryonic Fibroblasts (MEFs) and its p53-null derivative were kindly supplied by Guillermina Lozano (Department of Genetics, Anderson Cancer Centre, University of Texas, Houston, Tex., USA). WE-68 cell lines were grown in RPMI-1640 media, whilst human embryonic fibroblasts and MEFs were grown in Dulbecco's Modified Eagle's Medium (DMEM). Media was supplemented with 10% FCS, 1% PSG and 10 mM HEPES. All cells were maintained at 37° C. in a humidified atmosphere of 5% CO2.

[2] = system: primary human osteoblasts; experiment: Cell viability assay (7AAD, 48 hours), normal osteoblasts; format: cell-based; settings: Osteoblast, 48 hours exposure, read-out: Normal cell lines IC50 (μM) Osteoblasts
Experimental: as §1, §2

[3] = molecular target: T1, 20S proteasome CP-L activity (Oryctolagus cuniculus, UniProt A0A5F9DQW2); experiment: In vitro proteasome activity assay, CP-L (Z-nLPnLD-AMC); format: biochemical, rabbit; settings: purified 20S proteasome; highest concentration tested 25,000 nM
T1 construct: Purified rabbit 20S proteasome
T1 sequence (A0A5F9DQW2 1-212): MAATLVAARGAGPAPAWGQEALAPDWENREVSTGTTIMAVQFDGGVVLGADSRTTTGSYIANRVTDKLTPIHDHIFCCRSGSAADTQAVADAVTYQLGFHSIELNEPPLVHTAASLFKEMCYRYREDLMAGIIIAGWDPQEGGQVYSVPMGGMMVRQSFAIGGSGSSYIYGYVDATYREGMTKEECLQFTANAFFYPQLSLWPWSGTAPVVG
Experimental: We initially determined the ability of the novel tripeptide MG132 analogues 1-6 and the macrocycles 3a and 4a to inhibit the three separate protease activities of the 20S proteasome (CT-L, -T-L and CP-L). The assays were performed in vitro using purified 20S proteasome/inhibitor mixtures, with the activity of each subunit of the proteasome assessed upon incubation with its respective target peptide. […] In addition, there is no apparent clear-cut preference for the length of tether (compare compounds 1 to 4), while the introduction of an aryl group at P3 (as in 6) is well tolerated.
Purified rabbit 20S proteasome and fluorogenic CT-L substrate (Suc-LLVY-AMC) were purchased from Boston Biochem (Cambridge, Mass., USA). The T-L and CP-L fluorogenic substrates (Ac-RLR-AMC and Z-nLPnLD-AMC) were purchased from Enzo Life Sciences (Farmingdale, N.Y., USA). The 20S proteasome was diluted to 0.2 μg/μL in 20S proteasome buffer (50 mM HEPES pH 7.6, 150 mM NaCl and 1 mM DDT) and stored at −80° C. Purified 20S proteasome (8 ng) was pre-incubated with the indicated concentrations of inhibitors for 15 minutes and subsequently added to the AMC-labeled substrate peptide (50 μM) in assay buffer (25 mM HEPES, pH 7.5, 0.5 mM EDTA, 0.05% NP-40, and 0.001% SDS (w/v)) at 37° C. for 2 hours. Fluorescent substrate cleavage by the 20S proteasome was linear during this incubation timeframe (Supplementary Figure S4. Hydrolysed 7-amino-4-methylcoumarin (AMC) was subsequently detected with the FLUOstar OPTIMA microplatefluorometer at excitation/emission of 390/460 nm. The activity was estimated in relative fluorescence units and half of the maximal inhibitory activity of the proteasome is represented by IC50 values. A minimum of three biological replicates were performed for each data point.

[4] = system: primary human embryonic fibroblasts; experiment: Cell viability assay (7AAD, 48 hours), normal fibroblasts; format: cell-based; settings: Fibroblast, 48 hours exposure, read-out: Normal cell lines IC50 (μM) Fibroblasts
Experimental: as §1, §2

[5] = system: TC-252 Ewing's sarcoma cells; experiment: Cell viability assay (7AAD, 48 hours), TC-252; format: cell-based; settings: 48 hours exposure; read-out: Cancer cell lines IC50 (μM) TC-252
Experimental: as §1, §2

[6] = molecular target: T2, 20S proteasome T-L activity (Oryctolagus cuniculus, UniProt G1SWK8); experiment: In vitro proteasome activity assay, T-L (Ac-RLR-AMC); format: biochemical, rabbit; settings: for IC50: purified 20S proteasome, highest concentration tested 25,000 nM
T2 construct: purchased Boston Biochem
T2 sequence (G1SWK8 1-271): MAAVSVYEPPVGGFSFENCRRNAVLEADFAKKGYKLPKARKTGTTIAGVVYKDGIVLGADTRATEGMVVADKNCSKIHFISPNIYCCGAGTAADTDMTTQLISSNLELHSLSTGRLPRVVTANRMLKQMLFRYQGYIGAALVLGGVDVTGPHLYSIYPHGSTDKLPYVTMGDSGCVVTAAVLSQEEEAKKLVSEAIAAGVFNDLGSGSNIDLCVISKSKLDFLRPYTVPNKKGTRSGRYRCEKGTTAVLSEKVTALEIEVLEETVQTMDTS
Experimental: (§3) The assays were performed in vitro using purified 20S proteasome/inhibitor mixtures, with the activity of each subunit of the proteasome assessed upon incubation with its respective target peptide.
(§4) Purified rabbit 20S proteasome and fluorogenic CT-L substrate (Suc-LLVY-AMC) were purchased from Boston Biochem (Cambridge, Mass., USA). The T-L and CP-L fluorogenic substrates (Ac-RLR-AMC and Z-nLPnLD-AMC) were purchased from Enzo Life Sciences (Farmingdale, N.Y., USA). The 20S proteasome was diluted to 0.2 μg/μL in 20S proteasome buffer (50 mM HEPES pH 7.6, 150 mM NaCl and 1 mM DDT) and stored at −80° C. Purified 20S proteasome (8 ng) was pre-incubated with the indicated concentrations of inhibitors for 15 minutes and subsequently added to the AMC-labeled substrate peptide (50 μM) in assay buffer (25 mM HEPES, pH 7.5, 0.5 mM EDTA, 0.05% NP-40, and 0.001% SDS (w/v)) at 37° C. for 2 hours.

[7] = system: normal cell lines (fibroblasts, osteoblasts); experiment: Cell viability assay, normal cell lines (average); format: cell-based; settings: Homo sapiens; average of fibroblasts and osteoblasts
Experimental: as §1, §2

[8] = system: WE-68 Ewing's sarcoma cells; experiment: Cell viability assay (7AAD, 48 hours), WE-68; format: cell-based; settings: 48 hours exposure; read-out: Cancer cell lines IC50 (μM) WE-68
Experimental: as §1, §2

[9] = system: VH-64 Ewing's sarcoma cells; experiment: Cell viability assay (7AAD, 48 hours), VH-64; format: cell-based; settings: 48 hours exposure; read-out: Cancer cell lines IC50 (μM) VH-64
Experimental: as §1, §2

[10] = system: STA-ET-1 Ewing's sarcoma cells; experiment: Cell viability assay (7AAD, 48 hours), STA-ET-1; format: cell-based; settings: 48 hours exposure; read-out: Cancer cell lines IC50 (μM) STA-ET-1
Experimental: as §1, §2

[11] = molecular target: bovine α-chymotrypsin (bCT) (Bos taurus, UniProt P00766); experiment: Bovine chymotrypsin spectrophotometric assay (Suc-Ala-Ala-Pro-Phe-pNA); format: biochemical
Experimental: The activity of bCT was assayed spectrophotometrically with a Varian Cary 5000 UV-VIS-NIR spectrophotometer equipped with a thermostated multicell holder at 25.0±0.1° C. Assay buffer was: Tris-HCl (77 mM), CaCl2 (20 mM), pH 7.8 (pH optimum of α-chymotrypsin {3}). A solution of bCT (21.9 μg/mL) in aq HCl (1 mM) was prepared daily by a 1:40 dilution of a stock solution (874 μg/mL) in aq HCl (1 mM) and kept at 0° C. A 1:100 dilution in ice-cold aq HCl (1 mM) was prepared immediately before starting each measurement. Stock solutions of the substrate Suc-Ala-Ala-Pro-Phe-pNA (10 mM) and all inhibitors (5 mM) were freshly prepared in DMSO and stored at r.t. All compounds were analyzed at five different inhibitor concentrations, [I]. Progress curves were monitored at 405 nm over 6 min and characterized by a linear steady state turnover of the substrate.
The Inhibition studies were performed in the presence of 6% v/v DMSO in a volume of 1 mL containing 0.011 μg/mL bCT, different concentrations of Suc-Ala-Ala-Pro-Phe-pNA (10-100 μM) and inhibitor. Into a cuvette containing 890 μL assay buffer, 10 μL of substrate solution (1-10 mM), inhibitor stock, and DMSO were added to give a total volume of […]. After thoroughly mixing the contents of the cuvette, the enzymatic reaction was initiated by adding 50 μL of bCT solution. Uninhibited enzyme activity was determined by adding DMSO instead of inhibitor solution. Non-enzymatic hydrolysis of Suc-Ala-Ala-Pro-Phe-pNA was analyzed by adding DMSO and 1 mM aqueous HCl instead of inhibitor and enzyme solution, respectively, and found to be negligible. The rate of enzyme-catalyzed hydrolysis of 100 μM substrate was determined without inhibitor in each experiment and was set to 100%. Ki values of inhibitors were determined graphically according to Dixon {4} using mean values of percentage rates obtained in three separate experiments at two different substrate concentrations, [S].

[12] = molecular target: T3, 20S proteasome chymotrypsin-like (CT-L) activity (Oryctolagus cuniculus, UniProt G1T4Q9); experiment: In vitro proteasome activity assay, CT-L (Suc-LLVY-AMC); format: biochemical, rabbit; settings: purified 20S proteasome
T3 sequence (G1T4Q9 1-263): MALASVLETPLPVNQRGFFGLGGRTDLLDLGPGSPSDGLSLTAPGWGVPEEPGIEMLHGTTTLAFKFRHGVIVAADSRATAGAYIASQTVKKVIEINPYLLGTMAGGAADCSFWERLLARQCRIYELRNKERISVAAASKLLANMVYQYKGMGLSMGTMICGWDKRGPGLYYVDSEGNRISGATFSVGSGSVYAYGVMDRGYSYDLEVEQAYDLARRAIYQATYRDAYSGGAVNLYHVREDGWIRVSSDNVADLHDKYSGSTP
Experimental: as §3, §4

Row | IC50 [1] [nM] | IC50 [3] [nM] | IC50 [5] [µM] | IC50 [6] [nM] | IC50 [8] [µM] | IC50 [9] [µM] | IC50 [10] [µM] | Ki [11] [nM] | SMILES | IC50 [2] [µM] | IC50 [4] [µM] | further results
1 | – | – | – | – | – | – | – | 431 ± 5 | O=CC(Cc1ccccc1)NC(=O)C1CCCCOc2ccc(cc2)CCC(=O)c2ccc([nH]2)C(=O)N1 (centres unmarked) [Compound 2d] | – | – | –
2 | – | – | – | – | – | – | – | 1920 ± 167 | CC(C)CC(C=O)NC(=O)C1Cc2ccc(cc2)OCCCCOc2ccc(cc2)CCC(=O)c2ccc([nH]2)C(=O)N1 (centres unmarked) [Compound 3c] | – | – | –
3 | – | – | – | – | – | – | – | 33 ± 5 | O=CC(Cc1ccccc1)NC(=O)C1Cc2ccc(cc2)OCCCCOc2ccc(cc2)CCC(=O)c2ccc([nH]2)C(=O)N1 (centres unmarked) [Compound 3d] | – | – | –

Second part, the compound before the results:

Row | SMILES | IC50 [1] [nM] | IC50 [3] [nM] | IC50 [5] [µM] | IC50 [6] [nM] | IC50 [8] [µM] | IC50 [9] [µM] | IC50 [10] [µM] | Ki [11] [nM] | IC50 [2] [µM] | IC50 [4] [µM] | further results
4 | CC(C)C[C@H](NC(=O)[C@H](Cc1ccccc1)NC(=O)c1cnccn1)B(O)O [Bortezomib, reference compound] | 20 | 438 | 0.01 | > 25000 | 0.02 | 0.04 | < 0.0008 | – | 0.28 | 0.02 | Therapeutic window ([1]; fold change in potency (IC50) against cancer cell line versus normal cell line): ×9.1; activation of T-L activity [6]: ^fBortezomib activated T-L activity by 32%.; IC50 [7]: 150 nM
5 | O=C[C@H](Cc1ccccc1)NC(=O)[C@@H]1CCCCCCCCCCCC(=O)c2ccc([nH]2)C(=O)N1 [Compound 1d, (S)-2,16-dioxo-N—((S)-1-oxo-3-phenylpropan-2-yl)-3,20-diazabicyclo[15.2.1]icosa-1(19),17-diene-4-carboxamide] | – | – | – | – | – | – | – | 2520 ± 248 | – | – | –
6 | CC(C)CC1NC(=O)C(NC(=O)OCc2ccccc2)CCCCn2cc(nn2)COc2ccc(cc2)CC(C=O)NC1=O (centres unmarked) [Compound 4a] | 31700 | > 25000 | 39.4 | > 25000 | 18 | > 50 | 37.6 | – | > 50 | > 50 | IC50 [12]: 250 nM
